Blank lines part the entries; values can stand above or below the molecule they belong to. Calls of active or inactive are those of the source.
Assays:
[1] = biological target: Cyclin-dependent kinase 5/CDK5 activator 1 (Homo sapiens, UniProt Q00535); assay: CDK5/p35 kinase inhibitors, dose response, biochemical, cherry-picked samples, set 2 (AID 504545)
[2] = Counterscreen for IDE inhibitors: Luminescence-based cell-based high throughput dose response assay to identify compounds that are cytotoxic to HEK cells. [Related pubchem assays: 434962 (Primary screen (IDE inhibitors in singlicate)), 449730 (Counterscreen (Cytotoxicity in triplicate)), 435028 (Confirmation (IDE inhibitors in triplicate)) …; assay type: functional; conditions: HEK293
[3] = biological target: DNA dC->dU-editing enzyme APOBEC-3G (Homo sapiens, UniProt Q9HC16); assay type: functional;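 note: Dose-response counterscreen measuring inhibition of APOBEC3G DNA deaminase activity, run while confirming APOBEC3A inhibitors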
[4] = biological target: DNA dC->dU-editing enzyme APOBEC-3A (Homo sapiens, UniProt P31941); assay: Dose Response confirmation of small molecule APOBEC3A DNA Deaminase Inhibitors via a fluorescence-based single-stranded DNA deaminase assay. [Related pubchem assays (depositor defined):AID493011, AID493024]; assay type: functional
[5] = biological target: T1, Insulin-degrading enzyme (Homo sapiens, UniProt P14735); assay: Dose Response: Fluorescence polarization-based cell-based high throughput dose response assay for inhibitors of insulin-degrading enzyme (IDE). [Related pubchem assays: 434962 (Primary screen (IDE inhibitors in singlicate)), 449730 (Counterscreen (Cytotoxicity in triplicate)), 435028 (Confirmation (IDE inhibitors in triplicate)), 434984 (Summary …; assay type: functional
T1 sequence (P14735 whole entry): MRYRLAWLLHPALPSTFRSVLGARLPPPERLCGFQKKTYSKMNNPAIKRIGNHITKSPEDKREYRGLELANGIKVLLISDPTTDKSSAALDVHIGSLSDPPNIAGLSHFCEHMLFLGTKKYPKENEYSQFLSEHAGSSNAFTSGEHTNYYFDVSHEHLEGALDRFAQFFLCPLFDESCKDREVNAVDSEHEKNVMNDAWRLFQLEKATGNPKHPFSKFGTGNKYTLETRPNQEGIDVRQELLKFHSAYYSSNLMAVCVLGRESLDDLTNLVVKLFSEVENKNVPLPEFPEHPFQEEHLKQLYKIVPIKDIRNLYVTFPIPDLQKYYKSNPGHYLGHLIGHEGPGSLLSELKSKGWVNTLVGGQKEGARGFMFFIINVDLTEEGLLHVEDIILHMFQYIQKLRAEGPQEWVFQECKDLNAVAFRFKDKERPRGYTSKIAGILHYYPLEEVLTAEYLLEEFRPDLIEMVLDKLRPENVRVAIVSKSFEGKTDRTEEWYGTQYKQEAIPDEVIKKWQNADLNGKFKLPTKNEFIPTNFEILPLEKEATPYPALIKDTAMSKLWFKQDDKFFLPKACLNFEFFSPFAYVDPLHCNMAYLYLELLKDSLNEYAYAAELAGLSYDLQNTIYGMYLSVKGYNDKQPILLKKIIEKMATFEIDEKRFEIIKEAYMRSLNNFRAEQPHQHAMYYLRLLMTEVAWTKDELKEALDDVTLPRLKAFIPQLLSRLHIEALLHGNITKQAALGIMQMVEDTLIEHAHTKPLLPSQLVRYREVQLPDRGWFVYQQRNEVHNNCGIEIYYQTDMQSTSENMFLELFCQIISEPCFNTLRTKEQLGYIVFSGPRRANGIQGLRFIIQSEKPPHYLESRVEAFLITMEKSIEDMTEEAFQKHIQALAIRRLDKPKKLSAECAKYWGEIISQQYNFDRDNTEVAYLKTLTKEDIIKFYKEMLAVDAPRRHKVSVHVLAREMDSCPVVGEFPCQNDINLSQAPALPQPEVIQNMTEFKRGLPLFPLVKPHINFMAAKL

[6] = biological target: Mucolipin-3 (Homo sapiens, UniProt Q8TDD5); assay: Dose response cell-based high-throughput screening assay for agonists of the transient receptor potential channel ML3 (TRPML3). [Related pubchem assays: 1526, 1424, 1448 ]; assay type: functional
[7] = biological target: NACHT, LRR and PYD domains-containing protein 3 (Homo sapiens, UniProt Q96P20); assay: NALP3 inhibitors in yeast, dose response, luminescent (AID 488799); assay type: functional
[8] = biological target: Ion channel NompC (Danio rerio, UniProt Q7T1G6); assay: Fluorescence counterscreen assay for TRPML3 agonists: dose response cell-based high-throughput screening assay to identify agonists of the transient receptor potential channel N1 (TRPN1). [Related pubchem assays: 1526, 1424, 1448 ]; assay type: functional
[9] = biological target: Metabotropic glutamate receptor 4 (Rattus norvegicus, UniProt P31423); assay: Modulation of the Metabotropic Glutamate Receptor mGluR4: Rat PAM Potency. [Related pubchem assays (depositor defined):AID2437, AID2807]; assay type: functional
[10] = biological target: T2, RNA-binding protein pos-1 (Caenorhabditis elegans, UniProt G5EF15); assay: inhibitors of POS-1/mex-3 RNA binding, dose response, biochemical, fluorescence polarization (AID 1964);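 note: purified POS-1 fused to maltose binding protein made in E. coli; potency of compounds blocking POS-1 binding to fluorescent RNA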
T2 sequence (G5EF15 whole entry): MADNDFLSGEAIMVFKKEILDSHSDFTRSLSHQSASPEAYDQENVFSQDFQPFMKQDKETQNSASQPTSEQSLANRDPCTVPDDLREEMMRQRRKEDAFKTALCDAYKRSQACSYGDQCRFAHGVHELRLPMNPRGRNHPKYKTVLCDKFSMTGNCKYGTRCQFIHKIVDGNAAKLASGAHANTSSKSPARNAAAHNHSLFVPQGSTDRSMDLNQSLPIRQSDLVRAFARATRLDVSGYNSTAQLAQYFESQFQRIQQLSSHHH

[11] = biological target: Procathepsin L (Homo sapiens, UniProt P07711)
[12] = biological target: Large T antigen (Simian virus 40, UniProt P03070); assay type: functional, Betapolyomavirus macacae;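 note: Confirmatory-stage PubChem screen for compounds that inhibit SV40 T antigen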
[13] = biological target: T3, Zinc finger protein mex-5 (Caenorhabditis elegans, UniProt Q9XUB2); assay: MEX-5/TCR-2 RNA interaction inhibitors, dose response, biochemical, C. elegans, fluorescence polarization (AID 1960)
T3 sequence (Q9XUB2 whole entry): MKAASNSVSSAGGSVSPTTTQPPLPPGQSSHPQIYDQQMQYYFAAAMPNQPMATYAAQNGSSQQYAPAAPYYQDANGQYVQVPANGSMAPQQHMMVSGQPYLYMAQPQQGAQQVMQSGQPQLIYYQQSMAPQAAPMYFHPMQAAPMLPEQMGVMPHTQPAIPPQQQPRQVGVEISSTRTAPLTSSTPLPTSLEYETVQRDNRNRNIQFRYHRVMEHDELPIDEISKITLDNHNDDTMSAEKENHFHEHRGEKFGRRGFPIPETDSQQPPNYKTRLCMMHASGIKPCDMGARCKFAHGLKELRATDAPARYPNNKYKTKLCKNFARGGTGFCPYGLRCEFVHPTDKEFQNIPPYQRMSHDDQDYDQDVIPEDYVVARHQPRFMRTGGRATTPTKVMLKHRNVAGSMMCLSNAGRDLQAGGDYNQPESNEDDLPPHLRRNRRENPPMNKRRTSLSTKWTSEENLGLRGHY

[14] = biological target: Aspartyl aminopeptidase (Plasmodium falciparum 3D7, UniProt Q8I2J3)
[15] = biological target: Cytochrome P450 2D6 (Homo sapiens, UniProt P10635); assay: qHTS Assay for Inhibitors and Substrates of Cytochrome P450 2D6. [Related pubchem assays: 410 ]; assay type: ADME; conditions: read-out: Potency
Sequence of Cytochrome P450 2D6 (P10635 whole entry): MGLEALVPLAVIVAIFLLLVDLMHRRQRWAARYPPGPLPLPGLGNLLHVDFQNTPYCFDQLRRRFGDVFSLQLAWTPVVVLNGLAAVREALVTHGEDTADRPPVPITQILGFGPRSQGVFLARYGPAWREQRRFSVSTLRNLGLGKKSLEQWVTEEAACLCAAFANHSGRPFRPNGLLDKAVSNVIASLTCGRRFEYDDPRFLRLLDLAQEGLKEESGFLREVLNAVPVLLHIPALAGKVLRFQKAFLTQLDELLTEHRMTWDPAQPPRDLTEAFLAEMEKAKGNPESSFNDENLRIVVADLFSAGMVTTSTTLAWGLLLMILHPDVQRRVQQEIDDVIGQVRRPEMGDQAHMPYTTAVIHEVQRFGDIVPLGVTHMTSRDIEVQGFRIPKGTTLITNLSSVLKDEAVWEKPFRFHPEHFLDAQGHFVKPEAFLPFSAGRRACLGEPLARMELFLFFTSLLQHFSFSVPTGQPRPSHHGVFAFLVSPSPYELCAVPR

Sequence of Metabotropic glutamate receptor 4 (P31423 whole entry, the tested form may be a part): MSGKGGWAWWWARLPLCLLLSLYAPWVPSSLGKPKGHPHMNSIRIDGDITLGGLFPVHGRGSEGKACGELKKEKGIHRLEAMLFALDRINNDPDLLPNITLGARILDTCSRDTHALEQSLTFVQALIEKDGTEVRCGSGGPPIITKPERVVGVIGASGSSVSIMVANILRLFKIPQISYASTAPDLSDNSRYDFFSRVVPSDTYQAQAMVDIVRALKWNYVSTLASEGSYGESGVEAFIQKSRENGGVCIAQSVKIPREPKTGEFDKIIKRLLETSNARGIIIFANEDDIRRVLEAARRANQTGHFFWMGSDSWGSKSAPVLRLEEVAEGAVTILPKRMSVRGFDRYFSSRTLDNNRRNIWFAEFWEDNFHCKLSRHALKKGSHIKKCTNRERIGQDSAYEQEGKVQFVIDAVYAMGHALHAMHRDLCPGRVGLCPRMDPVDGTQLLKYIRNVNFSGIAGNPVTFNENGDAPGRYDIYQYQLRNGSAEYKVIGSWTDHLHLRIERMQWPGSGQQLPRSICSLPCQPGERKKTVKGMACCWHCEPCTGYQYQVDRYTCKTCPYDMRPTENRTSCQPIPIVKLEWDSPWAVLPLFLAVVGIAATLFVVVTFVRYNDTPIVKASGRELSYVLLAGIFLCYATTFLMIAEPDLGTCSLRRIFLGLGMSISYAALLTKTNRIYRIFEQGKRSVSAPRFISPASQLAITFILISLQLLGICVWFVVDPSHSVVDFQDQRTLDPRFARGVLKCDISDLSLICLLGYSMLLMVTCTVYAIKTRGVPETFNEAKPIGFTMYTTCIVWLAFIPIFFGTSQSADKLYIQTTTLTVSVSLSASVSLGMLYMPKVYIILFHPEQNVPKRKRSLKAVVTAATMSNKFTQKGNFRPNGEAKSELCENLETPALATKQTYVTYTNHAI
Sequence of NACHT, LRR and PYD domains-containing protein 3 (Q96P20 whole entry, the tested form may be a part): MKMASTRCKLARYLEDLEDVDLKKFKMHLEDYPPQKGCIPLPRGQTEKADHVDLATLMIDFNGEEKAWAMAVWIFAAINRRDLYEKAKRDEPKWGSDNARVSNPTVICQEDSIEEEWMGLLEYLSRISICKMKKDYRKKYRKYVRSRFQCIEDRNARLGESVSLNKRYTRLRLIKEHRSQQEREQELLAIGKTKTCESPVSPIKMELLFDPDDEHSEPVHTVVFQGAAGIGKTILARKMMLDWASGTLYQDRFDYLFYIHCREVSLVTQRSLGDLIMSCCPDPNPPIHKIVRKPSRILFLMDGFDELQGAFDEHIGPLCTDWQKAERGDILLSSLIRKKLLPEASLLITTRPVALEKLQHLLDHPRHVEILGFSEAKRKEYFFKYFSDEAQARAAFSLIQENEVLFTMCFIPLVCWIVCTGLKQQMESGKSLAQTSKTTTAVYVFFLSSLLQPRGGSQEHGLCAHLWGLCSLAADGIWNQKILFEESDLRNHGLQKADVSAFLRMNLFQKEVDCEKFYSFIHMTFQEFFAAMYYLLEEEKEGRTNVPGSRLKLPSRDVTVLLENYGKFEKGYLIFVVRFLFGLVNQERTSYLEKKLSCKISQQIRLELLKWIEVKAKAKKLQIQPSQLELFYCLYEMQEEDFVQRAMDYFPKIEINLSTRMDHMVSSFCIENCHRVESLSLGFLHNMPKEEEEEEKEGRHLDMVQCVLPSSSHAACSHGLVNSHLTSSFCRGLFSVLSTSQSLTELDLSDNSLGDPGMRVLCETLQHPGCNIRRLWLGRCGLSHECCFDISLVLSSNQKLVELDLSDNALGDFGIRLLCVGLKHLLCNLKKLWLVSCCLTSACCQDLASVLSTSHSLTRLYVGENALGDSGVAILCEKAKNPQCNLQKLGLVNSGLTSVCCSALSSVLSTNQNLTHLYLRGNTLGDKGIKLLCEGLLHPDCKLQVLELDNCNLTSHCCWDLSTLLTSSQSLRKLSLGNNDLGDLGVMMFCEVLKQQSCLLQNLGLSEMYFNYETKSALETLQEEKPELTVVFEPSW
Sequence of Large T antigen (P03070 whole entry): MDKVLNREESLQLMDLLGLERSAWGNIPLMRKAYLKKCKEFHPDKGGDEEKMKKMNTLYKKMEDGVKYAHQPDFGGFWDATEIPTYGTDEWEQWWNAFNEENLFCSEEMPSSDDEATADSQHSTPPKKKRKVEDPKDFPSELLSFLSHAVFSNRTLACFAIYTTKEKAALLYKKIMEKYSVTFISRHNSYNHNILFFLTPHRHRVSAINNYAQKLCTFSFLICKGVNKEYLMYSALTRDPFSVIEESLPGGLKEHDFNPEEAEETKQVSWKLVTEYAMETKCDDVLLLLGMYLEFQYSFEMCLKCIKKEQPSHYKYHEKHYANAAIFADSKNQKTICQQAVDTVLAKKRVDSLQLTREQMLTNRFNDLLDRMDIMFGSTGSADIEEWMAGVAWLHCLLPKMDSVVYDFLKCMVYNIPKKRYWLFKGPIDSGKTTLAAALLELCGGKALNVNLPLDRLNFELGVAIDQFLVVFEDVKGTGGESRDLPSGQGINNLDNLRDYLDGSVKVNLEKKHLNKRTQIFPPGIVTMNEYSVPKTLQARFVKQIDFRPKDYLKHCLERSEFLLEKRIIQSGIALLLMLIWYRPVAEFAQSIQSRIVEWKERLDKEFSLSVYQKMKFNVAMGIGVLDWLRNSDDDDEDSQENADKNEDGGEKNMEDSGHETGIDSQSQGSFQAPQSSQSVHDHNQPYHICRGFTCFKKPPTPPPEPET
Sequence of Cyclin-dependent kinase 5/CDK5 activator 1 (Q00535 whole entry): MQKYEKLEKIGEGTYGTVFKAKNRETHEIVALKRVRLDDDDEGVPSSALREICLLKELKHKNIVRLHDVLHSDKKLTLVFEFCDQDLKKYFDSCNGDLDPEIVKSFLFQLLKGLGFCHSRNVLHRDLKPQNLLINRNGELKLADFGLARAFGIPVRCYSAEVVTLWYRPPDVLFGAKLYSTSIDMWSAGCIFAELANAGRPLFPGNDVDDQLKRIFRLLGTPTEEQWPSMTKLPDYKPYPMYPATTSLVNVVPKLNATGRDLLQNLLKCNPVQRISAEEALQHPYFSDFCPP
Sequence of Cyclin-dependent kinase 5/CDK5 activator 1 (Q15078 whole entry, further chain): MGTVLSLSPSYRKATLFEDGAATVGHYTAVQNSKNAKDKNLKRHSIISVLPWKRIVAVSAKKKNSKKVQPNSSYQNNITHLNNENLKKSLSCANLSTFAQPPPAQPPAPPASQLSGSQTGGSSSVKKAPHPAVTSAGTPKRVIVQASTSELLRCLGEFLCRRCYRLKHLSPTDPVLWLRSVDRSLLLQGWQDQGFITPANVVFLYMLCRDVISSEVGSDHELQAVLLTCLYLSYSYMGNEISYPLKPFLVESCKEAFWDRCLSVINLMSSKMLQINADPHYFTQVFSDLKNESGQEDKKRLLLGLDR
Sequence of Aspartyl aminopeptidase (Q8I2J3 whole entry): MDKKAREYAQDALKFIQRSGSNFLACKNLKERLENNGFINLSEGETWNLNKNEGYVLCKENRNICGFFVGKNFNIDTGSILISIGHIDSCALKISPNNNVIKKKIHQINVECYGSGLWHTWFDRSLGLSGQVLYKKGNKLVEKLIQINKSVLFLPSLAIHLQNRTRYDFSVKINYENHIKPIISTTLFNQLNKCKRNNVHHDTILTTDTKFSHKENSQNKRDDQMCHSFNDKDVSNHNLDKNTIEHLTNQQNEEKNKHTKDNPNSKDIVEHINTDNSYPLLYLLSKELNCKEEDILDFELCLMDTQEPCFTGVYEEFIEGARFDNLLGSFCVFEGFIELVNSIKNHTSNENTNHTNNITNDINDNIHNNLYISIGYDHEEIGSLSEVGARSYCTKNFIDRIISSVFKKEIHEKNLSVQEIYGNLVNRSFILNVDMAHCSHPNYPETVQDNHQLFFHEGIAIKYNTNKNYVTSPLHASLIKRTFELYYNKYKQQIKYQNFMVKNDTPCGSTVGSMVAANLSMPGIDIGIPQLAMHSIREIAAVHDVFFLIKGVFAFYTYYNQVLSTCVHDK
Sequence of DNA dC->dU-editing enzyme APOBEC-3G (Q9HC16 whole entry): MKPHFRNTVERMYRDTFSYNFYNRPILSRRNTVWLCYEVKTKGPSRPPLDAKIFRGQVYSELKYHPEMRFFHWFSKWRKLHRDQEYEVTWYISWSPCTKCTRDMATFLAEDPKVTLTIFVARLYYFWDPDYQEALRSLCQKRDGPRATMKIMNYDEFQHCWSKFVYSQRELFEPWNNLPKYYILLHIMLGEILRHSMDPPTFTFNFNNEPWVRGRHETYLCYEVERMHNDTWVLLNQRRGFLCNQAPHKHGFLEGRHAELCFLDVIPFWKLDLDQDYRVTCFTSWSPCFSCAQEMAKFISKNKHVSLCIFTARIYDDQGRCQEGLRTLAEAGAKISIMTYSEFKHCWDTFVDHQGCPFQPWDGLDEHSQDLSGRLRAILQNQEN
Sequence of DNA dC->dU-editing enzyme APOBEC-3A (P31941 whole entry): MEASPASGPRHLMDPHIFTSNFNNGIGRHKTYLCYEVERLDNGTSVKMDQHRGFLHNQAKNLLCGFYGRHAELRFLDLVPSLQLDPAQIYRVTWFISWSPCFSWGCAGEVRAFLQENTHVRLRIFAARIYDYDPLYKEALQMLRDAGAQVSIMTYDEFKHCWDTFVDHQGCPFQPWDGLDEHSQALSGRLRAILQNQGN

SMILES: CCN(CC)C(=O)c1ccc(/C=C/c2c[nH]c3ccccc23)[n+](C)c1
- IC50 [2]: > 55.7 µM (not active)
- IC50 [3]: 2.1 µM (active)
- IC50 [4]: 1.96 µM (active)
- IC50 [5]: 16.1 µM (not active)

SMILES: CN(CCOc1ccccc1)c1ccc(S(=O)(=O)N2CCCCC2)cn1
- EC50 [6]: 2.58 µM (active)
- IC50 [7]: > 100 µM (inactive)
- EC50 [8]: > 29.9 µM (not active)

SMILES: CN1CCc2cccc3c2[C@H]1Cc1ccc(O)c(O)c1-3 [APOMORPHINE]
- EC50 [10]: > 300 µM (inconclusive)
- IC50 [11]: > 59.6 µM (not active)
- IC50 [12]: 20.2 µM (active)
- EC50 [13]: 3.29 µM (active)
- IC50 [14]: 3.67 µM (active)

Results, then the molecule that gave them:

- AC50 [1]: 8.21 µM (active)
SMILES: Nc1nc(Nc2cccc(Cl)c2)nc(NCCO)c1[N+](=O)[O-]

- EC50 [9]: 1.25 µM (active)
SMILES: O=C(Nc1ccc(Cl)c(Cl)c1)c1ccccn1

- AC50 [15]: 31.6 µM (inconclusive)
SMILES: CC(C)=CCc1c(O)cc(O)c2c1O[C@H](c1ccccc1)CC2=O [GLABRANIN]

From ChEMBL document CHEMBL1201862, “PubChem BioAssay data set” (2004)
